The target in test [1] is T1, D(2) dopamine receptor (Homo sapiens, UniProt P14416). Briefly: Agonist activity against human D2A receptor; Active. It is filed as functional.
The target of test [2] is T1, D(2) dopamine receptor. Briefly: In vitro ability to inhibit [3H]raclopride binding to cloned human D2A receptors expressed in mouse fibroblast (LtK-) cells. It is filed as cell-based.
Test [3] deals with T2, 5-hydroxytryptamine receptor 1A (Rattus norvegicus, UniProt P19327).
T2 sequence (P19327 whole entry): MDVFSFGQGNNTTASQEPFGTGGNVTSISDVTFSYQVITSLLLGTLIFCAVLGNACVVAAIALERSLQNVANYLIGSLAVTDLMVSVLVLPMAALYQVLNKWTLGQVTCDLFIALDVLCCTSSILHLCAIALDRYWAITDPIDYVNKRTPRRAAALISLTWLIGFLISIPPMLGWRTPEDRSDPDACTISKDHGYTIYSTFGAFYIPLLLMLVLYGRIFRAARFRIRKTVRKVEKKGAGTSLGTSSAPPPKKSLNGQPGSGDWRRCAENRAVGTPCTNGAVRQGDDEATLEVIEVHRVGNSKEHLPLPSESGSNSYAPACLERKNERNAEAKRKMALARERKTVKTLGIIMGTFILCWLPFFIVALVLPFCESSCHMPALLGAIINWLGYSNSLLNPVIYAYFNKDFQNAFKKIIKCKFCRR
In words: In vitro ability to inhibit [3H]-8-OH-DPAT binding to 5-hydroxytryptamine 1A receptor in rat cortical membranes. Type of test: cell membranes.

Each structure is given as a SMILES string. Active and inactive are the calls of the source. The calls are words filed in the database; no cut-off is given here.

For orientation: Ki means the equilibrium dissociation constant of an inhibitor or competing ligand from its target. A lower Ki goes with higher affinity.

T1 sequence (P14416 whole entry): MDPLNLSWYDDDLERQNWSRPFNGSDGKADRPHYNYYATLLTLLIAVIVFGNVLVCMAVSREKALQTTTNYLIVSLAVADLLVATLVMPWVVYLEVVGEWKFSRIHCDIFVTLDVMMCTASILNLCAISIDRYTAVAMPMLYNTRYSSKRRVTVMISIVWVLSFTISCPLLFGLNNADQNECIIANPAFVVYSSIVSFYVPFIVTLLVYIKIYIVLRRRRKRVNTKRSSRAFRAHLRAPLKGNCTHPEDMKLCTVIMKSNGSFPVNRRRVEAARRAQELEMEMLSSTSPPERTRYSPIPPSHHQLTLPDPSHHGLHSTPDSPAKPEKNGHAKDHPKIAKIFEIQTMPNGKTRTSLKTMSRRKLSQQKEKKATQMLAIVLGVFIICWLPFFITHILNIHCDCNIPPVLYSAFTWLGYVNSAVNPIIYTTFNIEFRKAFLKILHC

`CCCN(CCC)C1COc2c(Br)ccc(OC)c2C1` (stereo not given): the outcome in test [1] was Active.
Turning to `CCCN(CCC)C1COc2c(cccc2-c2ccsc2)C1` (stereo not given), the values for the Ki in test [2] and in test [3] were 398 nM and 1.1 nM, respectively.
In the case of `CCCN(CCC)C1COc2c(cccc2C(=O)c2ccsc2)C1` (stereo not given), the Ki is above 1000 nM in test [2] and 7.3 nM in test [3].
Take `CCCN(CCC)C1COc2c(O)cccc2C1` (stereo not given): the Ki is 128 nM in test [2] and above 3000 nM in test [3].
Take `CCCN(CCC)C1COc2c(cccc2-c2ccccc2OC)C1` (stereo not given): the values for the Ki in test [2] and in test [3] were above 1000 nM and 1.1 nM, respectively.
On to `CCCN(CCC)C1COc2c(cccc2C(=O)c2ccc(OC)cc2)C1` (stereo not given), for which the Ki was above 1000 nM in test [2] and 10.5 nM in test [3].
As to `CCCN(CCC)C1COc2c(cccc2C(=O)c2ccccc2OC)C1` (stereo not given), the Ki in test [2] was above 1000 nM; in test [3] it was 60.8 nM.
For `CCCN(CCC)C1COc2c(cccc2-c2ccccc2)C1` (stereo not given), the affinity in test [3] corresponds to a Ki of 1.1 nM.
Turning to `CCCN(CCC)C1COc2c(SC)ccc(OC)c2C1` (stereo not given), the result in test [1] was Active.
As to `CCCN(CCC)C1COc2c(cccc2C(=O)c2ccc(C(C)=O)cc2)C1` (stereo not given), the inhibitory constant (Ki) was above 1000 nM in test [2] and 11 nM in test [3].
`CCCN(CCC)C1COc2c(cccc2-c2ccc(OC)cc2)C1` (stereo not given): the Ki in test [3] is 1.3 nM.
For `CCCN(CCC)C1COc2c(cccc2-c2ccc(C(F)(F)F)cc2)C1` (stereo not given), the Ki in test [2] was found to be 763 nM; in test [3] it was 63.8 nM.
As for `CCCN(CCC)C1COc2c(cccc2C(=O)c2ccoc2)C1` (stereo not given), the values for the Ki in test [2] and in test [3] were 1360 nM and 16.4 nM, respectively.
Consider `CCCN(CCC)C1COc2c(cccc2C(=O)c2ccc(C(F)(F)F)cc2)C1` (stereo not given), for which the Ki was above 1000 nM in test [2] and 47.2 nM in test [3].
As to `CCCN(CCC)C1COc2cccc(O)c2C1` (stereo not given), the results for the inhibitory constant (Ki) in test [2] and in test [3] were above 3000 nM and 83 nM, respectively.
For `CCCN(CCC)C1COc2c(cccc2C(=O)c2ccccc2)C1` (stereo not given), the Ki in test [2] is above 1000 nM; in test [3], 4 nM.
Regarding `CCCN(CCC)C1COc2c(cccc2-c2ccoc2)C1` (stereo not given), the Ki stood at 47.5 nM in test [2] and 5.7 nM in test [3].

(Values after ChEMBL document CHEMBL1132392, “Novel derivatives of 3-(dipropylamino)chroman. Interactions with 5-HT1A and D2A receptors” (Bioorg Med Chem Lett, 1999).)
